# Test results reported in US20160175351A1, “CANCER TREATMENT” (DUKE UNIVERSITY, priority 2013, published 2016).
# Where a SMILES comes first, the peptide text is derived from it. The star is where a group is joined. Cbz = O=C(OCc1ccccc1)*; CHN2 = [N-]=[N+]=C*; tBu = CC(C)(C)*
# Columns and labels:
# [1] = system: Ctr1-/- MEFs expressing wild type Ctr1; test: Cisplatin uptake/accumulation by ICP-MS in MEFs expressing wild type Ctr1 (FIG. 6); format: cell-based, mouse; details: inhibitor 10 μM over night, then cisplatin 200 μM for 2 h
# Text: (§1) FIG. 6 is a graph showing platinum accumulation in Ctr1 knockout MEFs (Ctr1^−/−), wild-type MEFs (Ctr1), or MEFs expressing Ctr1 with a Pro25Ala mutation (Ctr1^P25A). Each of the above were either untreated (1, 2 and 3), or treated with the Cathepsin L inhibitor Z-FY(tBu)-DMK (4, 5 and 6).
# (§2) Mouse embryonic fibroblasts from Ctr1^−/− embryos were stably transfected with the human Ctr1 and the human Ctr1 containing the proline to alanine mutation at position 25 (Ctr1^P25A). […] Cells were rinsed in three times with ice cold PBS before the cells were scraped and divided into two tubes; one for measuring metal concentration and one for protein quantification. […] Platinum concentrations in the digested samples were measured by inductively coupled plasma mass spectrometry ([…]) and normalized to the total amount of protein in the sample.
# (§3) Mouse Ctr1^−/− MEFs were transfected with vector alone (Ctr1^−/−), the expression vector expressing wild type Ctr1 (Ctr1) or the Ctr1^P25A mutant protein (Ctr1^P25A). Cells were incubated with cisplatin (200 μM for 2 h), or cisplatin plus the Cathepsin L inhibitor Z-FY(t-Bu)-DMK (10 μM) as indicated, harvested and cisplatin accumulation measured by ICP-MS and plotted on the Y-axis.
# [2] = system: Ctr1-/- MEFs expressing Ctr1^P25A; test: Cisplatin uptake/accumulation by ICP-MS in MEFs expressing Ctr1 P25A (FIG. 6); format: cell-based, mouse; details: inhibitor 10 μM over night, then cisplatin 200 μM for 2 h
# Text: as §1, §2, §3
# human Ctr1 = test: Ctr1 ectodomain cleavage, anti-Ctr1 immunoblot of Ctr1-/- MEFs stably transfected with human Ctr1 (FIG. 5); format: cell-based; details: MEFs expressing human Ctr1, inhibitor 10 μM, 16 hours, immunoblot (lane 3)
# Method: (§4) Each of the above were either untreated (lanes 1 and 2), or treated with the Cathepsin L inhibitor Z-FY(tBu)-DMK (lanes 3 and 4). F=full-length, T=truncated.
# (§5) Mouse embryonic fibroblasts from Ctr1^−/− embryos were stably transfected with the human Ctr1 and the human Ctr1 containing the proline to alanine mutation at position 25 (Ctr1^P25A). Cells were cultured in medium supplemented with 20% fetal bovine serum and treated with DMSO or 10 μM cysteine protease Cathepsin L, Z-FY(t-Bu)-DMK and harvested 16 hours later. Total proteins were isolated from the cells by homogenizing cells in ice cold PBS supplemented with 1% Triton-X, 0.1% SDS, and 1 mM EDTA. Cell debris was removed by centrifugation and the total amounts of soluble proteins were quantified in each sample. Equal amounts of proteins were separated on tris/glycine gradient gel, transferred to nitrocellulose membrane and blocked with 5% non-fat milk in Tris buffered saline supplemented with 0.05% Tween (TBST) for 1 h. Membranes were incubated with anti-Ctr1 antibody (1:1000) followed by anti-rabbit-HRP coupled antibody (1:5000) and bands detected by enhanced chemiluminescent substrate. Anti-Actin antibody was used as loading control.
# (§6) Inhibition of the cysteine protease Cathepsin L, Z-FY(t-Bu)-DMK (10 μM) (lanes 3 and 4) results in an increased levels of the copper and cisplatin binding full length form of Ctr1. […]
# [3] = system: human Ctr1 containing the proline to alanine mutation at position 25 (Ctr1^P25A); test: Ctr1 ectodomain cleavage, anti-Ctr1 immunoblot of Ctr1-/- MEFs stably transfected with human Ctr1 P25A (FIG. 5); format: cell-based; details: MEFs expressing Ctr1^P25A, inhibitor 10 μM, 16 hours, immunoblot (lane 4)
# Method: as §4, §5, §6
# calpain = details: known from literature (McGowan 1989; Barrett 1982); cited from earlier work
# cathepsin H = biological target: T1, cathepsin H (Homo sapiens, UniProt P09668); details: known from literature (McGowan 1989; Barrett 1982); cited from earlier work
# T1 sequence (P09668 98-335): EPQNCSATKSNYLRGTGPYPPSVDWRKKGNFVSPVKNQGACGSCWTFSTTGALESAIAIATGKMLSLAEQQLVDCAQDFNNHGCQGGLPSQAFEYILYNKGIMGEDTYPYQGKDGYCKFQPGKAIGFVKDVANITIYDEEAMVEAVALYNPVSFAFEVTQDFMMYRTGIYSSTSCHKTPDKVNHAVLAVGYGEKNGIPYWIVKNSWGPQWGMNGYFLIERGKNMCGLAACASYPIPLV
# cathepsin L = cathepsin L (Homo sapiens, UniProt P07711); details: known from literature (McGowan 1989; Barrett 1982); cited from earlier work
# papain = biological target: T2, papain (Carica papaya, UniProt P00784); details: known from literature (McGowan 1989; Barrett 1982); cited from earlier work
# T2 sequence (P00784 134-345): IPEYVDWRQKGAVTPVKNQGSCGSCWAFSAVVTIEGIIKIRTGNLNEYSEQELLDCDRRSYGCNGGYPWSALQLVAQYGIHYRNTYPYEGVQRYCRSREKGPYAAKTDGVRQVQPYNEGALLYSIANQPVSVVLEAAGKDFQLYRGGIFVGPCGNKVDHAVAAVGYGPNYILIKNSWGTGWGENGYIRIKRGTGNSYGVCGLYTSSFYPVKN
# cathepsin B = cathepsin B (Homo sapiens, UniProt P07858); details: known from literature (McGowan 1989; Barrett 1982); cited from earlier work
# [4] = system: Ctr1 ectodomain cleavage in Cathepsin L-/- mouse embryonic fibroblasts; test: Ctr1 ectodomain cleavage, anti-Ctr1 immunoblot of Cathepsin L-/- MEFs (FIG. 4); format: cell-based
# Text: (§7) FIG. 4 is an immunoblot of protein extracts from wild-type MEFs (lanes 1-4) and Cathepsin L^−/− MEFs (lanes 5-8) with an anti-Ctr1 antibody and an anti-tubulin antibody. Lanes 1 and 2 are duplicate samples from untreated wild type MEFs. Lanes 3 and 4 are duplicate samples from wild-type MEFs treated with the Cathepsin L inhibitor E64d. Lanes 5 and 6 are duplicate samples from untreated Cathepsin L^−/− MEFs. Lanes 7 and 8 are duplicate samples from Cathepsin L^−/− MEFs treated with the Cathepsin L inhibitor E64d.
# (§8) Mouse embryonic fibroblasts from wild type and CatL^−/− littermates were cultured in medium supplemented with 10% fetal bovine serum and treated with DMSO or […] of the cell permeable cysteine protease inhibitor E64d and harvested 16 hours later. Total proteins were isolated from the cells by homogenizing cells in ice cold PBS supplemented with 1% Triton-X, 0.1% SDS, and 1 mM EDTA. Cell debris was removed by centrifugation and the total amounts of soluble proteins were quantified in each sample. Equal amounts of proteins were separated on Tris/glycine gradient gel, transferred to nitrocellulose membrane and blocked with 5% non-fat milk in Tris buffered saline supplemented with 0.05% Tween (TBST) for 1 h. Membranes were incubated with anti-Ctr1 antibody (1:1000) followed by anti-rabbit-HRP coupled antibody (1:5000) and bands detected by enhanced chemiluminescent substrate. […]
# [5] = system: Ctr1 ectodomain cleavage in wild type mouse embryonic fibroblasts; test: Ctr1 ectodomain cleavage, anti-Ctr1 immunoblot of wild type MEFs (FIG. 4); format: cell-based; details: E64d 10 μM, harvested 16 hours later
# Text: as §7, §8
# cathepsin L, sequence (P07711 114-333): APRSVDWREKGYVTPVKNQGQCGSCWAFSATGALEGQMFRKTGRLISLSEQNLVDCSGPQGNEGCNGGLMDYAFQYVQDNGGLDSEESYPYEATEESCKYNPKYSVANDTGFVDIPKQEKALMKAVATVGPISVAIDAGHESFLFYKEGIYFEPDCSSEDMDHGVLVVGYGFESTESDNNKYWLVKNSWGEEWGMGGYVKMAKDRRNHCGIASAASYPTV
smiles,measurement,setting,value
"CC(C)(C)Oc1ccc(CC(NC(=O)C(Cc2ccccc2)NC(=O)OCc2ccccc2)C(=O)C=[N+]=[N-])cc1 (stereo not drawn) [Z-FY(t-Bu)-DMK, benzyl (1-((1-(4-(tert-butoxy)phenyl)-4-diazo-3-oxobutan-2-yl)amino)-1-oxo-3-phenylpropan-2-yl)carbamate] (Cbz-Phe-Tyr(tBu)-CHN2; configuration not given here)","cisplatin accumulation (platinum by ICP-MS, normalized to protein)",[1],enhanced
same,"cisplatin accumulation (platinum by ICP-MS, normalized to protein)",[2],enhanced
same,levels of the copper and cisplatin binding full length form of Ctr1,human Ctr1,increased
same,levels of the copper and cisplatin binding full length form of Ctr1,[3],increased
"CC(C)C[C@H](NC(=O)[C@H]1O[C@@H]1C(=O)O)C(=O)NCCCCN=C(N)N (relative stereo) [E-64, trans-Epoxysuccinyl-L-leucylamido(4-guanidino)butane]",inhibition of calpain,calpain,inhibit
same,inhibition of cathepsin H,cathepsin H,inhibit
same,inhibition of cathepsin L,cathepsin L,inhibit
same,inhibition of papain,papain,inhibit
same,inhibition of cathepsin B,cathepsin B,inhibit
"CCOC(=O)[C@H]1O[C@@H]1C(=O)N[C@@H](CC(C)C)C(=O)NCCC(C)C (relative stereo) [E64d, (2S,3S)-trans-Epoxysuccinyl-L-leucylamido-3-methylbutane ethyl ester]",levels of cleaved Ctr1,"[4]; Cathepsin L knock out MEFs, E64d 10 μM, 16 hours",not
same,full-length Ctr1,[4]; Cathepsin L-/- MEFs treated with E64d vs not treated,increase
same,levels of cleaved Ctr1,[5],dramatic reduction
